≈ marks a conversion by molar mass, not a printed value.
What follows are compounds tested on E. coli BW25113 (assay: MIC, microdilution in 96-well plates). Conditions: Escherichia coli, BW25113, B: E. coli BW25113; read-out: MIC.
Assay type: cell-based
Experimental: (§1) A microdilution method in 96-well plates was used and the MIC protocol established by the Clinical Laboratory Standards Institute was followed. From a growing subculture, a 1:10000 inoculum of each strain in Luria-Bertani media was prepared and aliquoted 100 μL in 4 columns of wells, except for the top row wells, which contained 200 μL of inoculum. A solution of gyramide C2 was aliquoted into 3 of the wells containing 200 μL and DMSO was added to the 4th well. The liquid in each of wells was mixed with a multi-channel pipet and 100 μL was transferred to the next well and mixed. The 2-fold dilution was continued down the 96-well plate until 100 μL was left, which was discarded. The plates were incubated at 37° C. with shaking for 16-18 hours. The MIC was determined as the lowest concentration that inhibited growth and had no turbidity by visual inspection.
(§2) Minimum inhibitory concentrations of various gyramide compounds against 20 strains of bacteria were determined using the procedure described above.
`COc1ccc(-c2ccc(CN3CC[C@@H](NS(=O)(=O)c4cccc(C(F)(F)F)c4)C3)cc2)cc1` [Compound 61] gave an MIC greater than 8 µg/mL.
`COc1ccccc1-c1ccc(CN2CC[C@@H](NS(=O)(=O)c3cccc(C(F)(F)F)c3)C2)cc1` [Compound 66] showed an MIC greater than 8 µg/mL.
`O=S(=O)(N[C@@H]1CCN(Cc2ccc(OC3CCOCC3)cc2)C1)c1cccc(OC(F)(F)F)c1` [Compound 39] gave an MIC greater than 8 µg/mL.
Compound `COc1ccccc1-c1ccc(CN2CC[C@@H](NS(=O)(=O)c3cccc(OC(F)(F)F)c3)C2)cc1` [Compound 76] has an MIC greater than 8 µg/mL.
For `COc1ccc(-c2ccc(CN3CC[C@@H](NS(=O)(=O)c4cccc(OC(F)(F)F)c4)C3)cc2)cc1` [Compound 74], the MIC was greater than 8 µg/mL.

The compounds below were run on Edwardsiella tarda (assay: MIC, microdilution in 96-well plates). Conditions: D: Edwardsiella tarda.
Assay type: cell-based
Experimental: as §1, §2
With `COc1ccc(-c2ccc(CN3CC[C@@H](NS(=O)(=O)c4cccc(C(F)(F)F)c4)C3)cc2)cc1` [Compound 61] the MIC was greater than 8 µg/mL.
Compound `COc1ccccc1-c1ccc(CN2CC[C@@H](NS(=O)(=O)c3cccc(C(F)(F)F)c3)C2)cc1` [Compound 66] has an MIC greater than 8 µg/mL.
`O=S(=O)(N[C@@H]1CCN(Cc2ccc(OC3CCOCC3)cc2)C1)c1cccc(OC(F)(F)F)c1` [Compound 39] showed an MIC greater than 8 µg/mL.
For `COc1ccccc1-c1ccc(CN2CC[C@@H](NS(=O)(=O)c3cccc(OC(F)(F)F)c3)C2)cc1` [Compound 76], the MIC was greater than 8 µg/mL.
With `COc1ccc(-c2ccc(CN3CC[C@@H](NS(=O)(=O)c4cccc(OC(F)(F)F)c4)C3)cc2)cc1` [Compound 74] the MIC was greater than 8 µg/mL.

The compounds below were run on Streptococcus agalactiae (assay: MIC, 20-strain panel). Conditions: not given.
Assay type: cell-based
Experimental: as §1, §2
Compound `COc1ccc(-c2ccc(CN3CC[C@@H](NS(=O)(=O)c4cccc(C(F)(F)F)c4)C3)cc2)cc1` [Compound 61] has an MIC greater than 8 µg/mL.
Work on `COc1ccccc1-c1ccc(CN2CC[C@@H](NS(=O)(=O)c3cccc(C(F)(F)F)c3)C2)cc1` [Compound 66] yielded an MIC greater than 8 µg/mL.
Compound `O=S(=O)(N[C@@H]1CCN(Cc2ccc(OC3CCOCC3)cc2)C1)c1cccc(OC(F)(F)F)c1` [Compound 39] has an MIC greater than 8 µg/mL.
For `COc1ccccc1-c1ccc(CN2CC[C@@H](NS(=O)(=O)c3cccc(OC(F)(F)F)c3)C2)cc1` [Compound 76], the MIC was greater than 8 µg/mL.
Compound `COc1ccc(-c2ccc(CN3CC[C@@H](NS(=O)(=O)c4cccc(OC(F)(F)F)c4)C3)cc2)cc1` [Compound 74] has an MIC greater than 8 µg/mL.

Each compound was assayed on Staphylococcus epidermidis (assay: MIC, 20-strain panel). Conditions: not given.
Assay type: cell-based
Experimental: as §1, §2
`COc1ccc(-c2ccc(CN3CC[C@@H](NS(=O)(=O)c4cccc(C(F)(F)F)c4)C3)cc2)cc1` [Compound 61] was tested, and the MIC was roughly 8 µg/mL (≈ 16.3 µM).
In the case of `COc1ccccc1-c1ccc(CN2CC[C@@H](NS(=O)(=O)c3cccc(C(F)(F)F)c3)C2)cc1` [Compound 66], the MIC is reported as 8 µg/mL (≈ 16.3 µM).
`O=S(=O)(N[C@@H]1CCN(Cc2ccc(OC3CCOCC3)cc2)C1)c1cccc(OC(F)(F)F)c1` [Compound 39] gave an MIC greater than 8 µg/mL.
Work on `COc1ccccc1-c1ccc(CN2CC[C@@H](NS(=O)(=O)c3cccc(OC(F)(F)F)c3)C2)cc1` [Compound 76] yielded an MIC greater than 8 µg/mL.
With `COc1ccc(-c2ccc(CN3CC[C@@H](NS(=O)(=O)c4cccc(OC(F)(F)F)c4)C3)cc2)cc1` [Compound 74] the MIC was greater than 8 µg/mL.

What follows are compounds tested on Salmonella enterica subsp. enterica typhimurium (assay: MIC, 20-strain panel). Conditions: F: Salmonella enterica subsp. enterica Typhimurium.
Assay type: cell-based
Experimental: as §1, §2
Work on `COc1ccc(-c2ccc(CN3CC[C@@H](NS(=O)(=O)c4cccc(C(F)(F)F)c4)C3)cc2)cc1` [Compound 61] yielded an MIC greater than 8 µg/mL.
Work on `COc1ccccc1-c1ccc(CN2CC[C@@H](NS(=O)(=O)c3cccc(C(F)(F)F)c3)C2)cc1` [Compound 66] yielded an MIC greater than 8 µg/mL.
Compound `O=S(=O)(N[C@@H]1CCN(Cc2ccc(OC3CCOCC3)cc2)C1)c1cccc(OC(F)(F)F)c1` [Compound 39] has an MIC greater than 8 µg/mL.
For `COc1ccccc1-c1ccc(CN2CC[C@@H](NS(=O)(=O)c3cccc(OC(F)(F)F)c3)C2)cc1` [Compound 76], the MIC was greater than 8 µg/mL.
Work on `COc1ccc(-c2ccc(CN3CC[C@@H](NS(=O)(=O)c4cccc(OC(F)(F)F)c4)C3)cc2)cc1` [Compound 74] yielded an MIC greater than 8 µg/mL.

These compounds were tested on Streptococcus pyogenes (assay: MIC, 20-strain panel). Conditions: not given.
Assay type: cell-based
Experimental: as §1, §2
Work on `COc1ccc(-c2ccc(CN3CC[C@@H](NS(=O)(=O)c4cccc(C(F)(F)F)c4)C3)cc2)cc1` [Compound 61] yielded an MIC of roughly 8 µg/mL (≈ 16.3 µM).
In the case of `COc1ccccc1-c1ccc(CN2CC[C@@H](NS(=O)(=O)c3cccc(C(F)(F)F)c3)C2)cc1` [Compound 66], the MIC is reported as greater than 8 µg/mL.
For `O=S(=O)(N[C@@H]1CCN(Cc2ccc(OC3CCOCC3)cc2)C1)c1cccc(OC(F)(F)F)c1` [Compound 39], the MIC was greater than 8 µg/mL.
`COc1ccccc1-c1ccc(CN2CC[C@@H](NS(=O)(=O)c3cccc(OC(F)(F)F)c3)C2)cc1` [Compound 76] was tested, and the MIC was greater than 8 µg/mL.
`COc1ccc(-c2ccc(CN3CC[C@@H](NS(=O)(=O)c4cccc(OC(F)(F)F)c4)C3)cc2)cc1` [Compound 74] was tested, and the MIC was greater than 8 µg/mL.

What follows are compounds tested on Staphylococcus saprophyticus subsp. saprophyticus (assay: MIC, 20-strain panel). Conditions: not given.
Assay type: cell-based
Experimental: as §1, §2
For `COc1ccc(-c2ccc(CN3CC[C@@H](NS(=O)(=O)c4cccc(C(F)(F)F)c4)C3)cc2)cc1` [Compound 61], the MIC was greater than 8 µg/mL.
`COc1ccccc1-c1ccc(CN2CC[C@@H](NS(=O)(=O)c3cccc(C(F)(F)F)c3)C2)cc1` [Compound 66] was tested, and the MIC was greater than 8 µg/mL.
Work on `O=S(=O)(N[C@@H]1CCN(Cc2ccc(OC3CCOCC3)cc2)C1)c1cccc(OC(F)(F)F)c1` [Compound 39] yielded an MIC greater than 8 µg/mL.
Compound `COc1ccccc1-c1ccc(CN2CC[C@@H](NS(=O)(=O)c3cccc(OC(F)(F)F)c3)C2)cc1` [Compound 76] has an MIC greater than 8 µg/mL.
`COc1ccc(-c2ccc(CN3CC[C@@H](NS(=O)(=O)c4cccc(OC(F)(F)F)c4)C3)cc2)cc1` [Compound 74] gave an MIC greater than 8 µg/mL.

The compounds below were run on E. coli MG1655 (assay: MIC, 20-strain panel). Conditions: Escherichia coli, MG1655, A: E. coli MG1655; read-out: MIC.
Assay type: cell-based
Experimental: as §1, §2
In the case of `COc1ccc(-c2ccc(CN3CC[C@@H](NS(=O)(=O)c4cccc(C(F)(F)F)c4)C3)cc2)cc1` [Compound 61], the MIC is reported as greater than 8 µg/mL.
`COc1ccccc1-c1ccc(CN2CC[C@@H](NS(=O)(=O)c3cccc(C(F)(F)F)c3)C2)cc1` [Compound 66] showed an MIC greater than 8 µg/mL.
In the case of `O=S(=O)(N[C@@H]1CCN(Cc2ccc(OC3CCOCC3)cc2)C1)c1cccc(OC(F)(F)F)c1` [Compound 39], the MIC is reported as greater than 8 µg/mL.
Compound `COc1ccccc1-c1ccc(CN2CC[C@@H](NS(=O)(=O)c3cccc(OC(F)(F)F)c3)C2)cc1` [Compound 76] has an MIC greater than 8 µg/mL.
In the case of `COc1ccc(-c2ccc(CN3CC[C@@H](NS(=O)(=O)c4cccc(OC(F)(F)F)c4)C3)cc2)cc1` [Compound 74], the MIC is reported as greater than 8 µg/mL.

The compounds below were run on Shigella flexneri (assay: MIC, 20-strain panel). Conditions: G: Shigella flexneri.
Assay type: cell-based
Experimental: as §1, §2
In the case of `COc1ccc(-c2ccc(CN3CC[C@@H](NS(=O)(=O)c4cccc(C(F)(F)F)c4)C3)cc2)cc1` [Compound 61], the MIC is reported as greater than 8 µg/mL.
`COc1ccccc1-c1ccc(CN2CC[C@@H](NS(=O)(=O)c3cccc(C(F)(F)F)c3)C2)cc1` [Compound 66] gave an MIC greater than 8 µg/mL.
Work on `O=S(=O)(N[C@@H]1CCN(Cc2ccc(OC3CCOCC3)cc2)C1)c1cccc(OC(F)(F)F)c1` [Compound 39] yielded an MIC greater than 8 µg/mL.
In the case of `COc1ccccc1-c1ccc(CN2CC[C@@H](NS(=O)(=O)c3cccc(OC(F)(F)F)c3)C2)cc1` [Compound 76], the MIC is reported as greater than 8 µg/mL.
Compound `COc1ccc(-c2ccc(CN3CC[C@@H](NS(=O)(=O)c4cccc(OC(F)(F)F)c4)C3)cc2)cc1` [Compound 74] has an MIC greater than 8 µg/mL.

Each compound was assayed on E. coli JW5503 (deltolC) (assay: MIC, 20-strain panel). Conditions: Escherichia coli, C: E. coli JW5503 (deltolC).
Assay type: cell-based
Experimental: as §1, §2
`COc1ccc(-c2ccc(CN3CC[C@@H](NS(=O)(=O)c4cccc(C(F)(F)F)c4)C3)cc2)cc1` [Compound 61] was tested, and the MIC was 4 µg/mL (≈ 8.15 µM).
For `COc1ccccc1-c1ccc(CN2CC[C@@H](NS(=O)(=O)c3cccc(C(F)(F)F)c3)C2)cc1` [Compound 66], the MIC was 4 µg/mL (≈ 8.15 µM).
Compound `O=S(=O)(N[C@@H]1CCN(Cc2ccc(OC3CCOCC3)cc2)C1)c1cccc(OC(F)(F)F)c1` [Compound 39] has an MIC of 1 µg/mL (≈ 2 µM).
Work on `COc1ccccc1-c1ccc(CN2CC[C@@H](NS(=O)(=O)c3cccc(OC(F)(F)F)c3)C2)cc1` [Compound 76] yielded an MIC of 8 µg/mL (≈ 15.8 µM).
`COc1ccc(-c2ccc(CN3CC[C@@H](NS(=O)(=O)c4cccc(OC(F)(F)F)c4)C3)cc2)cc1` [Compound 74] gave an MIC of 8 µg/mL (≈ 15.8 µM).

Each compound was assayed on Klebsiella pneumoniae subsp. pneumoniae (assay: MIC, 20-strain panel). Conditions: E: Klebsiella pneumoniae subsp. pneumoniae.
Assay type: cell-based
Experimental: as §1, §2
Compound `COc1ccc(-c2ccc(CN3CC[C@@H](NS(=O)(=O)c4cccc(C(F)(F)F)c4)C3)cc2)cc1` [Compound 61] has an MIC greater than 8 µg/mL.
With `COc1ccccc1-c1ccc(CN2CC[C@@H](NS(=O)(=O)c3cccc(C(F)(F)F)c3)C2)cc1` [Compound 66] the MIC was greater than 8 µg/mL.
`O=S(=O)(N[C@@H]1CCN(Cc2ccc(OC3CCOCC3)cc2)C1)c1cccc(OC(F)(F)F)c1` [Compound 39] gave an MIC greater than 8 µg/mL.
Compound `COc1ccccc1-c1ccc(CN2CC[C@@H](NS(=O)(=O)c3cccc(OC(F)(F)F)c3)C2)cc1` [Compound 76] has an MIC greater than 8 µg/mL.
In the case of `COc1ccc(-c2ccc(CN3CC[C@@H](NS(=O)(=O)c4cccc(OC(F)(F)F)c4)C3)cc2)cc1` [Compound 74], the MIC is reported as greater than 8 µg/mL.

What follows are compounds tested on Staphylococcus aureus subsp. aureus (assay: MIC, 20-strain panel). Conditions: H: Staphylococcus aureus subsp. aureus, read-out: MIC.
Assay type: cell-based
Experimental: as §1, §2
With `COc1ccc(-c2ccc(CN3CC[C@@H](NS(=O)(=O)c4cccc(C(F)(F)F)c4)C3)cc2)cc1` [Compound 61] the MIC was greater than 8 µg/mL.
With `COc1ccccc1-c1ccc(CN2CC[C@@H](NS(=O)(=O)c3cccc(C(F)(F)F)c3)C2)cc1` [Compound 66] the MIC was greater than 8 µg/mL.
`O=S(=O)(N[C@@H]1CCN(Cc2ccc(OC3CCOCC3)cc2)C1)c1cccc(OC(F)(F)F)c1` [Compound 39] gave an MIC greater than 8 µg/mL.
In the case of `COc1ccccc1-c1ccc(CN2CC[C@@H](NS(=O)(=O)c3cccc(OC(F)(F)F)c3)C2)cc1` [Compound 76], the MIC is reported as greater than 8 µg/mL.
`COc1ccc(-c2ccc(CN3CC[C@@H](NS(=O)(=O)c4cccc(OC(F)(F)F)c4)C3)cc2)cc1` [Compound 74] gave an MIC greater than 8 µg/mL.

From patent US10253039B2, “Inhibitors of bacterial DNA gyrase with efficacy against gram-negative bacteria” (priority 2014, dated 2019)
